This assay concerns the target T1, ALDH2 (Homo sapiens, UniProt P05091).
T1 construct: made in house
T1 sequence (P05091 18-517): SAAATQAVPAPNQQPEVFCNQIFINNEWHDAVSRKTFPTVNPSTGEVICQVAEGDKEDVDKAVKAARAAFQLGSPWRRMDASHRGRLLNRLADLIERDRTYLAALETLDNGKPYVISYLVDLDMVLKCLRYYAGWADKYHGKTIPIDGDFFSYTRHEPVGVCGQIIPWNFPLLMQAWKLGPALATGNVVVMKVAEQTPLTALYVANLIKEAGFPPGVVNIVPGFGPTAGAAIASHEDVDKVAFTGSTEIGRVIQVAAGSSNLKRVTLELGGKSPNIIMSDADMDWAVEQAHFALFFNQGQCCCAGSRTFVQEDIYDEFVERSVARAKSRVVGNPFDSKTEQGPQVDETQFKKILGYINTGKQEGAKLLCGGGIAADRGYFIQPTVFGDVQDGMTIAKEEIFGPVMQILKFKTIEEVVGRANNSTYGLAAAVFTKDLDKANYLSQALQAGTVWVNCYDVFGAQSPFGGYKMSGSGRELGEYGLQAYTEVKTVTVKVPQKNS
The assay is described as follows: ALDH2 enzyme kinetics assay. Type of assay: biochemical. Conditions: 50-μM compound concentration. The procedure:
Cloning, expression, and purification of human recombinant ALDH1A1, ALDH1A3, ALDH2, ALDH3A1, ALDH3A2, ALDH4A1, ALDH5A1 and ALDH7A1 isozymes were conducted as described previously (Chen, C. H. et al. (2015) Proc. Natl. Acad. Sci. U.S.A. 112, 3074-3079). Human ALDH1A2 (Origene, SC109995) and ALDH1B1 (T. Hurley, Indiana University) plasmids were cloned into the pET-15b expression vector (Novagen, 69661-3) containing an N-terminal hexahistidine tag. The mitochondria-targeting sequence of ALDH1B1 was also removed. […] The protein concentration for each fraction was measured (500 μL elution volume was collected as one fraction and was immediately mixed with 500 μL glycerol. The protein concentration for each fraction was measured (600 nm Protein Assay Reagent; Thermo Fisher Scientific), and protein-containing fractions were diluted with an equal volume of glycerol and stored at −80° C. Samples from each step were also collected for SDS-PAGE gel analysis. For ALDH1B1 protein co-expression with chaperones, pET-15b-ALDH1B1 and GroEL/GroES (Addgene, plasmid pBB541) plasmids were co-transformed into competent BL21 E. coli cells, which were subsequently grown in 1 L of Luria-Bertani medium containing 100 μg/mL ampicillin and 50 μg/mL spectinomycin at 37° C. […]

The values below come from patent publication US12570661B2, “Isoform-specific aldehyde dehydrogenase inhibitors” (The Board of Trustees of the Leland Stanford Junior …, priority 2020, dated 2026).

In the case of `COc1ccccc1-n1cc(-c2ccc(-c3ccccc3)cc2)[n+]2c1CCCCC2` [Imidazolium 2], the “inhibition of ALDH2 activity” value is “neither imidazolium 1 or 2 could inhibit ALDH2 activity”.
